Measured values taken from PubChem BioAssay (NCI).
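Each compound was tested at five concentrations against cells in 96-well plates for 48 hours. The concentration for 50% growth inhibition is given as GI50. TGI is the concentration that stops growth completely.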

Key:
Test in all cases: NCI anticancer screen, dose series, 48 h
[1] = system: U251 CNS
[2] = system: DU-145 prostate
[3] = system: SNB-19 CNS
[4] = system: A549 NSCLC
[5] = system: HS 578T breast
[6] = system: RXF 393 renal
[7] = system: HL-60(TB) leukemia
[8] = system: TK-10 renal
[9] = system: MDA-MB-231 breast
[10] = system: HCT-116 colon
[11] = system: HCT-15 colon
[12] = system: SW-620 colon
[13] = system: HOP-92 NSCLC
[14] = system: K-562 leukemia
[15] = system: SK-MEL-28 melanoma
[16] = system: SF-268 CNS
[17] = system: NCI/ADR-RES ovarian
[18] = system: OVCAR-5 ovarian
[19] = system: A498 renal
[20] = system: SR leukemia
[21] = system: SNB-75 CNS
[22] = system: RPMI-8226 leukemia
[23] = system: NCI-H226 lung
[24] = system: EKVX NSCLC
[25] = system: SK-MEL-5 melanoma
[26] = system: UO-31 renal
[27] = system: SK-OV-3 ovarian
[28] = system: NCI-H522 lung
[29] = system: HCC-2998 colon
[30] = system: IGROV1 ovarian
[31] = system: MOLT-4 leukemia
[32] = system: SN12C renal
[33] = system: NCI-H23 lung
[34] = system: PC-3 prostate
[35] = system: M14 melanoma
[36] = system: MALME-3M melanoma
[37] = system: SF-295 CNS
[38] = system: ACHN renal
[39] = system: MCF7 breast
[40] = system: SK-MEL-2 melanoma
[41] = system: UACC-257 melanoma
[42] = system: HT29 colon
[43] = system: KM12 colon
[44] = system: CCRF-CEM leukemia
[45] = system: OVCAR-3 ovarian
[46] = system: UACC-62 melanoma
[47] = system: SF-539 CNS
[48] = system: MDA-MB-435
[49] = system: NCI-H460 lung
[50] = system: HOP-62 NSCLC
[51] = system: LOX IMVI melanoma
[52] = system: OVCAR-4 ovarian
[53] = system: T-47D breast
[54] = system: MDA-MB-468 breast
[55] = system: COLO 205 colon
[56] = system: OVCAR-8 ovarian
[57] = system: 786-0 renal
[58] = system: CAKI-1 renal
[59] = system: BT-549 breast

CCOC(=O)c1ccc(NC(=S)NC(=O)c2ccc(NC(=O)C(C)C)cc2OC)cc1
GI50 [1]: 12.3 µM | TGI [1]: 46 µM | GI50 [2]: 34.7 µM | TGI [2]: > 100 µM | GI50 [3]: 14.8 µM | TGI [3]: 66.9 µM | GI50 [4]: 33.4 µM | TGI [4]: > 100 µM | GI50 [5]: 31.7 µM | TGI [5]: > 100 µM | GI50 [6]: 15.7 µM | TGI [6]: 82.5 µM | GI50 [7]: 2.45 µM | TGI [7]: 25.2 µM | GI50 [8]: 22.3 µM | TGI [8]: 76.6 µM | GI50 [9]: 16.2 µM | TGI [9]: 53.2 µM | GI50 [10]: 3.99 µM | TGI [10]: 51.5 µM | GI50 [11]: 4.24 µM | TGI [11]: > 100 µM | GI50 [12]: 8.22 µM | TGI [12]: > 100 µM | GI50 [13]: 13.8 µM | TGI [13]: 44.8 µM | GI50 [14]: 3.28 µM | TGI [14]: > 100 µM | GI50 [15]: 14 µM | TGI [15]: > 100 µM | GI50 [16]: 20.7 µM | TGI [16]: > 100 µM | GI50 [17]: 12.6 µM | TGI [17]: 48.3 µM | GI50 [18]: 29.7 µM | TGI [18]: > 100 µM | GI50 [19]: 28.1 µM | TGI [19]: > 100 µM | GI50 [20]: 6.04 µM | TGI [20]: > 100 µM | GI50 [21]: 3.54 µM | TGI [21]: 62.7 µM | GI50 [22]: 2.66 µM | TGI [22]: 17.5 µM | GI50 [23]: 4.46 µM | TGI [23]: 36.8 µM | GI50 [24]: 15.7 µM | TGI [24]: 99.8 µM | GI50 [25]: 2.14 µM | TGI [25]: 5.79 µM | GI50 [26]: 11.3 µM | TGI [26]: 79.3 µM | GI50 [27]: 35.6 µM | TGI [27]: > 100 µM | GI50 [28]: 3.79 µM | TGI [28]: > 100 µM | GI50 [29]: 20.3 µM | TGI [29]: > 100 µM | GI50 [30]: 19.3 µM | TGI [30]: > 100 µM | GI50 [31]: 2.22 µM | TGI [31]: 5.97 µM | GI50 [32]: 28.5 µM | TGI [32]: > 100 µM | GI50 [33]: 3.71 µM | TGI [33]: 29.7 µM | GI50 [34]: 6.41 µM | TGI [34]: 69.9 µM | GI50 [35]: 5.83 µM | TGI [35]: 63.1 µM | GI50 [36]: 4.28 µM | TGI [36]: 32.6 µM | GI50 [37]: 8.33 µM | TGI [37]: 45.4 µM | GI50 [38]: 26 µM | TGI [38]: > 100 µM | GI50 [39]: 3.26 µM | TGI [39]: 37.2 µM | GI50 [40]: 14.9 µM | TGI [40]: 62.9 µM | GI50 [41]: 12.5 µM | TGI [41]: > 100 µM | GI50 [42]: 39.3 µM | TGI [42]: > 100 µM | GI50 [43]: 6.37 µM | TGI [43]: > 100 µM | GI50 [44]: 2.93 µM | TGI [44]: 50 µM | GI50 [45]: 15.3 µM | TGI [45]: > 100 µM | GI50 [46]: 11.7 µM | TGI [46]: 53.7 µM | GI50 [47]: 27.7 µM | TGI [47]: > 100 µM | GI50 [48]: 15.2 µM | TGI [48]: > 100 µM | GI50 [49]: 7.17 µM | TGI [49]: > 100 µM | GI50 [50]: 22.1 µM | TGI [50]: 72.3 µM | GI50 [51]: 11.6 µM | TGI [51]: > 100 µM | GI50 [52]: 9.21 µM | TGI [52]: 71.6 µM | GI50 [53]: 2.35 µM | TGI [53]: 11.2 µM | GI50 [54]: 2.04 µM | TGI [54]: 8.09 µM | GI50 [55]: 15.5 µM | TGI [55]: 42.3 µM | GI50 [56]: 16.4 µM | TGI [56]: > 100 µM | GI50 [57]: 21.9 µM | TGI [57]: 60.4 µM | GI50 [58]: 17.8 µM | TGI [58]: 80.8 µM | GI50 [59]: 1.97 µM | TGI [59]: 6.52 µM

COc1ccc(-c2cc(C(=O)N=Nc3c(O)[nH]c4ccc(Br)cc34)c3ccccc3n2)cc1
GI50 [1]: 3.4 µM | TGI [1]: > 100 µM | GI50 [2]: 10.9 µM | TGI [2]: 30.1 µM | GI50 [3]: 15.5 µM | TGI [3]: 28.9 µM | GI50 [4]: 9.06 µM | TGI [4]: 51.6 µM | GI50 [5]: 14.3 µM | TGI [5]: 55.1 µM | GI50 [6]: 10 µM | TGI [6]: 22.6 µM | GI50 [7]: 24.7 µM | TGI [7]: > 100 µM | GI50 [8]: 22 µM | TGI [8]: 41.2 µM | GI50 [9]: 6.94 µM | TGI [9]: 22.9 µM | GI50 [10]: 5.55 µM | TGI [10]: 66.4 µM | GI50 [11]: 3.23 µM | TGI [11]: 11.9 µM | GI50 [12]: 2.28 µM | TGI [12]: 6.83 µM | GI50 [13]: 13.3 µM | TGI [13]: 40.1 µM | GI50 [14]: 4.28 µM | TGI [14]: > 100 µM | GI50 [15]: 14.5 µM | TGI [15]: 28.1 µM | GI50 [16]: 17.9 µM | TGI [16]: 48.4 µM | GI50 [17]: 8.75 µM | TGI [17]: 33.9 µM | GI50 [18]: 14.3 µM | TGI [18]: 27.6 µM | GI50 [19]: 20.8 µM | TGI [19]: 36.8 µM | GI50 [21]: 14.1 µM | TGI [21]: 37.9 µM | GI50 [22]: 6.37 µM | TGI [22]: > 100 µM | GI50 [23]: 14.2 µM | TGI [23]: 45.7 µM | GI50 [24]: 10.5 µM | TGI [24]: 22.4 µM | GI50 [25]: 15.8 µM | TGI [25]: 31.8 µM | GI50 [26]: 12.5 µM | TGI [26]: 25 µM | GI50 [27]: 16.1 µM | TGI [27]: 34.8 µM | GI50 [28]: 16.9 µM | TGI [28]: 46.3 µM | GI50 [29]: 12.9 µM | TGI [29]: 26.4 µM | GI50 [30]: 11.2 µM | TGI [30]: 25.9 µM | GI50 [31]: 5.08 µM | TGI [31]: > 100 µM | GI50 [32]: 14.9 µM | TGI [32]: 30.3 µM | GI50 [33]: 3.09 µM | TGI [33]: 13.3 µM | GI50 [34]: 8.46 µM | TGI [34]: > 100 µM | GI50 [35]: 8.54 µM | TGI [35]: 44.4 µM | GI50 [36]: 15.6 µM | TGI [36]: 34.9 µM | GI50 [37]: 13.7 µM | TGI [37]: 27.2 µM | GI50 [38]: 11.1 µM | TGI [38]: 24.1 µM | GI50 [39]: 6.26 µM | TGI [39]: 26.5 µM | GI50 [40]: 18.2 µM | TGI [40]: 33.9 µM | GI50 [41]: 16.6 µM | TGI [41]: 37.7 µM | GI50 [42]: 3.62 µM | TGI [42]: 14.5 µM | GI50 [43]: 19 µM | TGI [43]: 85.7 µM | GI50 [44]: 3.09 µM | TGI [44]: > 100 µM | GI50 [45]: 12.3 µM | TGI [45]: 36.1 µM | GI50 [46]: 15.6 µM | TGI [46]: 30.2 µM | GI50 [47]: 15.6 µM | TGI [47]: 29.7 µM | GI50 [48]: 13.3 µM | TGI [48]: 43.8 µM | GI50 [49]: 3.7 µM | TGI [49]: 16.1 µM | GI50 [50]: 16.5 µM | TGI [50]: 36.7 µM | GI50 [51]: 3.33 µM | TGI [51]: 12.3 µM | GI50 [52]: 17.1 µM | TGI [52]: 72.2 µM | GI50 [53]: 19.8 µM | TGI [53]: 65.8 µM | GI50 [54]: 10.4 µM | TGI [54]: 25.3 µM | GI50 [55]: 16.1 µM | TGI [55]: 47.5 µM | GI50 [56]: 12.3 µM | TGI [56]: 31.4 µM | GI50 [57]: 19.4 µM | TGI [57]: 47.8 µM | GI50 [58]: 13.9 µM | TGI [58]: 40.1 µM | GI50 [59]: 27.8 µM | TGI [59]: 48.5 µM
